Laboratory results: patent US10617670B2, “Synergistic auristatin combinations” (priority 2014, dated 2020)

Legend:
[1] = in vitro; settings: rat, plasma
[2] = tested on: human cancer cell lines with PI3K pathway aberrations; assay: Mouse xenograft models
[3] = rat
[4] = tested on: panel of 81 protein kinases and Class III PI3K family hVps34; assay: Kinase screening services (Dundee University and Invitrogen); type: biochemical; settings: 81 protein kinases and hVps34
[5] = tested on: lung, breast cancer and ovarian cancer cell lines; assay: In vitro cytotoxic activity and combinations, cell line panel; type: cell-based, human; settings: agent alone
Experimental: Cells were plated in a 96-well clear-bottomed plates (Corning) and treated with varying concentrations of compounds for 4 days. […] by using a CellTiter Glo luminescent cell viability assay kit (Promega) and measured using a Victor X3 plate reader (Perkin Elmer). The data were normalised to the control group (empty vector or DMSO). The IC50 values were defined as the concentration that causes 50% growth inhibition. IC50 values were calculated using a logistic nonlinear regression, model no. 203 with XL fit v4.2 (IDBS, Guldford, Surry, UK). All experimental points were setup in three replicate wells and independently performed in duplicate.
The effects of drug combinations were evaluated using Chou-Talalay median effect analysis (28). Cells were treated with each drug alone and in combination in two independent 96-well plates in a diagonal matrix format, and proliferation was measured by using a CellTiter Glo kit (Promega). Results were expressed as surviving fractions (fraction affected, Fa), based on the measured luminescence counts of treated samples, compared to that of untreated controls. […]
In vitro cytotoxic activity was evaluated for the 5T4-ADC or the auristatin payloads in combination with various standard of care (SOC) agents or selected signaling inhibitors in lung, breast cancer and ovarian cancer cell lines. […]

[6] = tested on: more than 50 diverse human tumor cell lines; assay: Anti-proliferative effect in tumor cell lines; type: cell-based
[7] = tested on: MDA-MB-361; assay: Apoptosis induction; type: cell-based; settings: at 4 h, cleaved PARP
[8] = tested on: subcutaneous MDA-468 tumors; assay: Xenograft efficacy; type: in vivo, mouse; settings: 5T4-ADC 2 mg/kg
Experimental: Female athymic nu/nu mice (18-23 g) were obtained from Charles River Laboratories, Wilmington, Mass. […] ADCs were administered based on mAb protein content at 2 or 3 mg Ab/kg on a Q4D×4 (every 4 day) schedule, with 8 to 10 mice per group. […] All procedures using mice were approved by the Pfizer Institutional Animal Care and Use Committee according to established guidelines. Time To Endpoint (time to no tumor or rate of tumor tripling) were used for comparison of drug-treated groups.

COc1ccc(-c2cc3c(C)nc(N)nc3n([C@H]3CC[C@H](OCCO)CC3)c2=O)cn1 [Compound 1A, 2-amino-8-[trans-4-(2-hydroxyethoxy)cyclohexyl]-6-(6-methoxypyridin-3-yl)-4-methylpyrido[2,3-d]pyrimidin-7(8H)-one]
fraction unbound [1]: 0.202
in vivo activity [2]: has in vivo activity
clearance [3]: low clearance
concentration up to which no significant inhibitory activity was observed for any of the evaluated kinases [4]: > 10 µM

C#Cc1cccc(Nc2ncnc3cc(OCCOC)c(OCCOC)cc23)c1 [Erlotinib]
sensitivity of most of the cell lines to the single agent [5]: relatively insensitive

O=C(NOC[C@H](O)CO)c1ccc(F)c(F)c1Nc1ccc(I)cc1F [PD-901]
sensitivity of most of the cell lines to the single agent [5]: relatively insensitive

CN(C)C1CCN(C(=O)c2ccc(NC(=O)Nc3ccc(-c4nc(N5CCOCC5)nc(N5CCOCC5)n4)cc3)cc2)CC1 [PF-384, 1-(4-{[4-(dimethylamino)piperidin-1-yl]carbonyl}phenyl)-3-[4-(4,6-dimorpholin-4-yl-1,3,5-triazin-2-yl)phenyl]urea]
IC50 [6]: < 0.1 µM
concentration at which apoptosis was induced [7]: 30 nM

CC(=O)O[C@H]1C(=O)[C@@]2(C)[C@H]([C@H](OC(=O)c3ccccc3)[C@]3(O)C[C@H](OC(=O)[C@H](O)[C@@H](NC(=O)c4ccccc4)c4ccccc4)C(C)=C1C3(C)C)[C@]1(OC(C)=O)CO[C@@H]1C[C@@H]2O [paclitaxel]
regressions / CRs by day 53 ([8]; paclitaxel 22.5 mg/kg): 6/10
antitumor activity of monotherapy ([8]; paclitaxel 10 mg/kg): no pronounced effect on tumor growth
